Experimental data from patent publication US9000155B2, “Cyclic triazo sodium channel blockers” (University of Greenwich, priority 2009, dated 2015).
Values joined by “and” are separate entries in the source; they are usually repeats but may differ in a detail not shown here. Equal values may be shown once. Where a name gives a salt, the structure may show the parent alone. Read-outs that look alike come from different tables or passages of the source.

Key:
sodium channel = format: biochemical, rat; conditions: read-out: [14C]guanidine flux Mean IC50
Excerpt: The screening strategy is designed to select compounds with appropriate sodium channel blocking activity and low side effect liability. To this end all compounds are processed through the primary sodium channel assay (veratrine-evoked uptake of [^14C]guanidine into rat forebrain synaptosomes) and IC50 values computed from generated concentration-effect curves.
Following killing of animals by stunning and decapitation, the forebrain (whole brain less cerebellum/medulla) was rapidly dissected and transferred to a weighed tube containing ice-cold 0.25M sucrose.
Synaptosomes (heavy and light mitochondrial fraction containing synaptosomes) were prepared by transferring the forebrain (of known wet weight) to a glass Potter vessel to which 9 volumes ice-cold 0.25M sucrose had been added and homogenising, using a teflon pestle, by 8 ‘up and down strokes’ of a Braun Potter S motor driven homogeniser set to 900 rpm. The resulting homogenate was centrifuged at 1036×g at 4° for 10 min and the supernatant collected. The remaining pellet was resuspended, as above, in fresh ice-cold 0.25M sucrose and the centrifugation step repeated. The supernatant fractions were pooled and centrifuged at 40,000×g (average) at 4° for 15 min and the resulting pellet resuspended in the appropriate assay buffer at a concentration of 20-25 mg wet weight per ml appropriate assay buffer. […]

Microsome stability = format: in vitro ADME, human; conditions: 1 μM
Experimental: Compounds were sent to BioFocus for measurement of their stability @ 1 μM concentration following incubation with rat liver microsomes for 40 minutes @ 37°.

[1] = system: maximal electroshock-induced tonic convulsions; assay: Rat MES (Maximal ElectroShock) anticonvulsant test; format: in vivo; conditions: for MES Results (% protection): n = 5 rats; for ED50: Rattus norvegicus, po
Experimental: Male Wistar rats provided by BioLasco Taiwan (under Charles River Laboratories Technology Licensee) were used. Space allocation for 5 animals was 45×23×21 cm. Animals were housed in animal cages and maintained in a controlled temperature (21-23° C.) and humidity (50%-70%) environment with 12 hours light/dark cycles for at least three days in MDS Pharma Services—Taiwan Laboratory prior to use. Free access to standard lab chow for rats [MF-18 (Oriental Yeast Co., Ltd. Japan)] and reverse osmosis (RO) water were granted ad libitum. All aspects of this work including housing, experimentation and disposal of animals were performed in general accordance with the Guide for the Care and Use of Laboratory Animals (National Academy Press, Washington, D.C., 1996).
Test compounds were suspended/dissolved in 2% Tween 80 and dosed orally at a dose volume of 10 ml/Kg to groups of 5 Wistar male rats weighing 180+/−20 g, one hour before maximal electroshock (MES, 60 Hz sine wave, 150 mA, 200 msec duration) was applied through corneal electrodes. Appearance of maximal electroshock-induced tonic convulsions (MES) was determined for each animal. 50 percent or more (50%) inhibition of tonic convulsions by test substance indicates significant anticonvulsant activity.
Test substances (CEN-216, CEN-145, CEN-148, CEN-152 and CEN-154) at 14, 42 or 100 mg/kg were administered orally to groups of 5 Wistar derived male rats weighing 180±20 g.
In rat model of epilepsy (Maximal ElectroShock—MES), in which compounds were dosed orally one hour prior to ‘shock’, the ED50 (effective dose to protect 50% of rats from limb extension etc.) for CEN-216 is approx 9 mg/kg free base.

hERG = biological target: T1, hERG (Homo sapiens, UniProt Q12809); assay: Inhibition of binding of [3H]astemizole to HEK-293 cells expressing hERG; conditions: for inhibition at 10 µM: human, HEK-293 cells expressing human recombinant hERG, probe [3H]astemizole
T1 construct: host or cells: HEK-293
T1 sequence (Q12809 whole entry): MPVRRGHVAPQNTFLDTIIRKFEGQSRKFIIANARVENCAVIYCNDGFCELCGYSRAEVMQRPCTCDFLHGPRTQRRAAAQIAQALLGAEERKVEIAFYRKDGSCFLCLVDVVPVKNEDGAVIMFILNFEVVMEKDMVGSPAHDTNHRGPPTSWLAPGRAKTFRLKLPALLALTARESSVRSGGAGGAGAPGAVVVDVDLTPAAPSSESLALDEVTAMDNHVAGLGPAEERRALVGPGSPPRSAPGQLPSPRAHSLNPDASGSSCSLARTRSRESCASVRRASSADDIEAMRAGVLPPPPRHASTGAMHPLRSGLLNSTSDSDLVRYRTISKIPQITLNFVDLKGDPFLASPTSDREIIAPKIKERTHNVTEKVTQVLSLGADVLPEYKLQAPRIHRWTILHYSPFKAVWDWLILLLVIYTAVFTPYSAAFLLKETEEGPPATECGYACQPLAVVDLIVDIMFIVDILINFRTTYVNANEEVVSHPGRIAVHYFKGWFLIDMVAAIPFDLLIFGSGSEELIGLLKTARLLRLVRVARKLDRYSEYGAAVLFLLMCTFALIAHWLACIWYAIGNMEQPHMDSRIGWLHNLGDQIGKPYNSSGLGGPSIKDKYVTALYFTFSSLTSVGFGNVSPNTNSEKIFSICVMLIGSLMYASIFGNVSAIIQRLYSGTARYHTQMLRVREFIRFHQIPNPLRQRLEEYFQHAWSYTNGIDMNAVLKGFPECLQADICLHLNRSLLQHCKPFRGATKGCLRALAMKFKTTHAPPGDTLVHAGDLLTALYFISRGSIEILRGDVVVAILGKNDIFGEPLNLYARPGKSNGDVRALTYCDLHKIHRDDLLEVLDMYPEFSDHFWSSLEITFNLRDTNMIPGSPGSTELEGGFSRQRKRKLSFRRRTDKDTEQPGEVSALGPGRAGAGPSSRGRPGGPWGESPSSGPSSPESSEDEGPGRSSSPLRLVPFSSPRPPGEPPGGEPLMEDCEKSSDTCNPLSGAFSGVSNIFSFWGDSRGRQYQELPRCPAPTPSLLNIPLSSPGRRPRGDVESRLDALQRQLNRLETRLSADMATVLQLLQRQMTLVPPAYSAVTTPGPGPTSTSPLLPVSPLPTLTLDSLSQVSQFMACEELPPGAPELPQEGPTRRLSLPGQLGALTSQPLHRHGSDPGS
Experimental: Another common side-effect marker is inhibition of human Ether-a-go-go Related Gene potassium (hERG) potassium channel (Inward rectifying, IKr) activity which can be fatal due to heart failure brought about by development of long QT syndrome. A useful preliminary screen to assess potential to affect this channel is assessed by measurement of inhibition of the binding of [3H]astemizole to cell membranes expressing hERG. Selected compounds are tested for this activity by measurement of inhibition @ 10 μM.
Compounds were sent to MDS Pharma for measurement of their inhibition @ 10 μM concentration of the binding of [^3H]astemizole to HEK-293 cells expressing human recombinant hERG.

Sodium Channel, Site 2 = assay: Inhibition of binding of [3H]BTX-B to Wistar rat brain
[2] = system: maximal electroshock (MES); assay: Mouse MES model of epilepsy; format: in vivo; conditions: 72 mg/Kg (free base) po
Experimental: In mouse model of epilepsy (MES), compounds CEN-079 and CEN-216 were dosed orally (100 and 72 mg/kg free base respectively) @ 1 h, 6 h and 24 h prior to ‘shock).

L-Type Calcium Channels = assay: L-type calcium channel binding ([3H]nitrendipine, rat cerebral cortex membranes)
Excerpt: Compounds were sent to MDS Pharma for measurement of their inhibition @ […] of the binding of [^3H]nitrendipine to rat cerebral cortex membranes.

[3] = system: 0.4 mm slices of rat hippocampus; format: cell-based
[4] = extrapolated, read-out: hERG ([3H]astemizole) (extrapolated IC50 μM)
[5] = hERG IC50 (μM) (extrapolated from 10 μM inh'n), extrapolated from 10 μM inhibition, slope assumed 1.0
[6] = extrapolated, read-out: Nach ([3H]BTX-B) (extrapolated IC50 μM)
[7] = read-out: [3H]BTX-B binding Extrapolated IC50
[8] = 1 h, read-out: Rat MES ED50 (very approx, from single 100 mg/kg dose), free base, one hour prior to shock

## Nc1nnc(-c2cccc(Cl)c2Cl)c(N)n1 [CEN-1, 3,5-Diamino-6-(2,3-dichlorophenyl)-1,2,4-triazine, reference compound]
Sodium channel
  IC50: 219 µM
Microsome stability
  Microsome stability (human) % metabolized (40 min incubation 37°): 20%
[1]; 3 mg/kg po
  MES Results (% protection): 60%
[1]; 10 mg/kg po
  MES Results (% protection): 100%
[1]; 25 mg/kg po
  MES Results (% protection): 100%

## N=c1nc(N)c(-c2cccc(Cl)c2Cl)nn1CC(Cl)(Cl)Cl [CEN-216, 5(3)-Amino-6-(2,3-dichlorophenyl)-2,3(2,5)-dihydro-3(5)-imino-2-(2,2,2-trichloroethyl)-1,2,4-triazine trifluoromethanesulphonate]
Microsome stability
  Microsome stability (human) % metabolized (40 min incubation 37°): 0%
hERG; [4]
  IC50: 50 µM
hERG; [5]
  IC50: 73.3 µM
hERG
  inhibition at 10 µM: 12%
[1]; 1 mg/kg po
  MES Results (% protection): 0%
[1]; 3 mg/kg po
  MES Results (% protection): 0%
[1]; 10 mg/Kg (free base) po
  Rat MES (anticonvulsant in vivo) % protection: 80%
[1]; 10 mg/kg po
  MES Results (% protection): 80%
[1]; 30 mg/kg po
  MES Results (% protection): 100%
[1]; 100 mg/kg po
  MES Results (% protection): 100%
[1]; 1 h, free base, dosed orally one hour prior to shock, read-out: Rat MES ED50 (effective dose to protect 50% of rats)
  ED50: ~9 mg/kg
[1]; read-out: Rat MES ED50
  ED50: 9 mg/kg
Sodium Channel, Site 2
  [3H]BTX-B binding % inhibition (@ 10 μM): 42%
Sodium Channel, Site 2; [6]
  IC50: 20 µM
Sodium Channel, Site 2; [7]
  IC50: 13.8 µM
[2]
  duration of action following po dose in mouse: long duration of action
[2]; 1 h prior to shock
  Mouse MES % protection: 100%
[2]; 6 h prior to shock
  Mouse MES % protection: 100%
[2]; 24 h prior to shock
  Mouse MES % protection: 100%
L-Type Calcium Channels; 10 μM
  L-type Ca2+ % inhibition @ 10 μM: 27%
L-Type Calcium Channels; extrapolated, read-out: extrapolated IC50 in L-type Calcium (phenylalkylamine site) binding assay
  IC50: 27 µM
L-Type Calcium Channels; read-out: L-type Ca2+ IC50 (μM) (extrapolated from 10 μM inh'n), extrapolated from 10 μM inhibition, slope assumed 1.0
  IC50: 27 µM

## N=c1nc(N)c(-c2cccc(Cl)c2Cl)nn1CC(F)(F)C(F)(F)F [CEN-217]
hERG; [4]
  IC50: 26 µM
hERG; [5]
  IC50: 25.7 µM
hERG
  inhibition at 10 µM: 28%
[1]; 100 mg/Kg (free base) po
  Rat MES (anticonvulsant in vivo) % protection: 60% and 60 @ 100%
[1]; 100 mg/kg po
  MES Results (% protection): 60%
[1]; [8]
  ED50: ~80 mg/kg
Sodium Channel, Site 2
  [3H]BTX-B binding % inhibition (@ 10 μM): 105%
Sodium Channel, Site 2; [6]
  IC50: < 0.5 µM
Sodium Channel, Site 2; [7]
  IC50: < 0.5 µM

## N=c1nc(N)c(-c2cccc(Cl)c2Cl)nn1CC(F)(F)C(F)F [CEN-218]
hERG; [4]
  IC50: 40 µM
hERG; [5]
  IC50: 40 µM
hERG
  inhibition at 10 µM: 20%
[1]; 100 mg/Kg (free base) po
  Rat MES (anticonvulsant in vivo) % protection: 40 @ 100%
[1]; 100 mg/Kg (free base) po, listed as 218
  Rat MES (anticonvulsant in vivo) % protection: 40%
[1]; 100 mg/kg po
  MES Results (% protection): 40%
[1]; [8]
  ED50: ~120 mg/kg
Sodium Channel, Site 2
  [3H]BTX-B binding % inhibition (@ 10 μM): 108%
Sodium Channel, Site 2; [6]
  IC50: < 0.5 µM
Sodium Channel, Site 2; [7]
  IC50: < 0.5 µM

## N=c1nc(N)c(-c2cc(Cl)cc(Cl)c2Cl)nn1CC(Cl)(Cl)Cl [CEN-248]
[1]; 30 mg/Kg (free base) po
  Rat MES (anticonvulsant in vivo) % protection: 100% protection @ 30
[1]; 30 mg/kg po
  MES Results (% protection): 100%
Sodium Channel, Site 2
  [3H]BTX-B binding % inhibition (@ 10 μM): 27%
Sodium Channel, Site 2; [6]
  IC50: 27 µM
Sodium Channel, Site 2; [7]
  IC50: 27 µM

## O=C1NC(=O)C(c2ccccc2)(c2ccccc2)N1 [DiPhenylHydantoin, Diphenylhydantoin sodium salt, reference compound]
[3]
  % protection (v 1 μM TTX) (mean ± sem): 48%
[1]; 100 mg/kg po
  MES Results (% protection): 80%

## NC1=N[C@H](O)[C@H]2[C@H]3O[C@]4(O)O[C@@H]([C@@H](O)[C@@]2(N1)[C@@H]4O)[C@]3(O)CO [TTX, tetrodotoxin]
[3]
  % protection (v 1 μM TTX) (mean ± sem): 100%
